Our source for the Activity, IC50 and inhibition values is ChEMBL document CHEMBL4382208, “Design, synthesis and biological evaluation of novel 2-sulfonylindoles as potential anti-inflammatory therapeutic agents for treatment of acute lung injury” (Eur J Med Chem, 2018).

The source made the active and inactive calls. The rule behind the calls is not given here.

The test system of data set [1] is Mus musculus. Nature of the data set: Antiinflammatory activity in C57BL/6 mouse assessed as reduction in lung wet/dry ratio at 10 to 20 mg/kg, ip pretreated for 30 mins followed by LPS addition measured after 6 hrs. Format: functional, organism-based.
Data set [2] concerns Peritoneal macrophage. The data set can be described thus: Antiinflammatory activity in mouse primary peritoneal macrophages assessed as inhibition of LPS-induced TNF-alpha production preincubated for 30 mins followed by LPS addition and measured after 24 hrs by ELISA. The class given is functional, cell-based.
The test system of data set [3] is Peritoneal macrophage. The data set can be described thus: Antiinflammatory activity in mouse primary peritoneal macrophages assessed as inhibition of LPS-induced IL-1beta mRNA expression at 5 to 10 uM by RT-qPCR analysis. The class given is functional, cell-based.
Data set [4] concerns Mus musculus. Nature of the data set: Antiinflammatory activity in C57BL/6 mouse assessed as inhibition of LPS-induced total number of cells in bronchoalveolar lavage fluid at 10 to 20 mg/kg, ip pretreated for 30 mins followed by LPS addition measured after 6 hrs by Giemsa staining-based assay. The class given is functional, organism-based.
Data set [5] has as its system Peritoneal macrophage. Nature of the data set: Antiinflammatory activity in mouse primary peritoneal macrophages assessed as inhibition of LPS-induced IL-6 mRNA expression at 5 to 10 uM by RT-qPCR analysis. Format: functional, cell-based.
Data set [6] concerns Mus musculus. Nature of the data set: Antiinflammatory activity in C57BL/6 mouse assessed as inhibition of LPS-induced IL-1beta mRNA expression in lungs at 10 to 20 mg/kg, ip by RT-qPCR analysis. The class given is functional, organism-based.
The subject of data set [7] is Peritoneal macrophage. The data set can be described thus: Antiinflammatory activity in mouse primary peritoneal macrophages assessed as inhibition of LPS-induced IL-6 production at 10 uM preincubated for 30 mins followed by LPS addition and measured after 24 hrs by ELISA relative to control. Format: functional.
Data set [8] concerns Mus musculus. The data set can be described thus: Antiinflammatory activity in C57BL/6 mouse assessed as inhibition of LPS-induced TNF-alpha level in bronchoalveolar lavage fluid at 10 to 20 mg/kg, ip pretreated for 30 mins followed by LPS addition measured after 6 hrs. Format: functional, organism-based.
Data set [9] has as its system Mus musculus. Nature of the data set: Antiinflammatory activity in C57BL/6 mouse assessed as inhibition of LPS-induced total protein level in bronchoalveolar lavage fluid at 10 to 20 mg/kg, ip pretreated for 30 mins followed by LPS addition measured after 6 hrs. Format: functional, organism-based.
The test system of data set [10] is Peritoneal macrophage. Nature of the data set: Antiinflammatory activity in mouse primary peritoneal macrophages assessed as inhibition of LPS-induced TNF-alpha production at 10 uM preincubated for 30 mins followed by LPS addition and measured after 24 hrs by ELISA relative to control. The class given is functional.
The subject of data set [11] is Peritoneal macrophage. The data set can be described thus: Antiinflammatory activity in mouse primary peritoneal macrophages assessed as inhibition of LPS-induced IL-6 production preincubated for 30 mins followed by LPS addition and measured after 24 hrs by ELISA. Format: functional, cell-based.
The test system of data set [12] is Mus musculus. Nature of the data set: Antiinflammatory activity in C57BL/6 mouse assessed as inhibition of LPS-induced macrophage filtration in lung by measuring CD68 protein expression at 10 to 20 mg/kg, ip pretreated for 30 mins followed by LPS addition measured after 6 hrs by immunohistochemistry. The class given is functional, organism-based.
The subject of data set [13] is Mus musculus. The data set can be described thus: Antiinflammatory activity in C57BL/6 mouse assessed as inhibition of LPS-induced inflammatory cell infiltration at 10 to 20 mg/kg, ip pretreated for 30 mins followed by LPS addition measured after 6 hrs by hematoxylin and eosin staining based microscopic analysis. Format: functional, organism-based.
The subject of data set [14] is Mus musculus. Nature of the data set: Antiinflammatory activity in C57BL/6 mouse assessed as inhibition of LPS-induced IL-6 mRNA expression in lungs at 10 to 20 mg/kg, ip by RT-qPCR analysis. Format: functional, organism-based.
The subject of data set [15] is Mus musculus. Nature of the data set: Antiinflammatory activity in C57BL/6 mouse assessed as inhibition of LPS-induced IL-6 level in bronchoalveolar lavage fluid at 10 to 20 mg/kg, ip pretreated for 30 mins followed by LPS addition measured after 6 hrs. The class given is functional, organism-based.
Data set [16] has as its system Mus musculus. The data set can be described thus: Antiinflammatory activity in C57BL/6 mouse assessed as inhibition of LPS-induced VCAM-1 mRNA expression in lungs at 10 to 20 mg/kg, ip by RT-qPCR analysis. The class given is functional, organism-based.
Data set [17] has as its system Peritoneal macrophage. The data set can be described thus: Antiinflammatory activity in mouse primary peritoneal macrophages assessed as inhibition of LPS-induced VCAM-1 mRNA expression at 5 to 10 uM by RT-qPCR analysis. The class given is functional, cell-based.
The subject of data set [18] is Mus musculus. The data set can be described thus: Antiinflammatory activity in C57BL/6 mouse assessed as inhibition of LPS-induced neutrophil filtration in lung by measuring myeloperoxidase activity at 10 to 20 mg/kg, ip pretreated for 30 mins followed by LPS addition measured after 6 hrs by Giemsa staining-based assay. Format: functional, organism-based.
Data set [19] deals with Mus musculus. Nature of the data set: Antiinflammatory activity in C57BL/6 mouse assessed as inhibition of LPS-induced alveolar hemorrhage at 10 to 20 mg/kg, ip pretreated for 30 mins followed by LPS addition measured after 6 hrs by hematoxylin and eosin staining based microscopic analysis. The class given is functional, organism-based.
Data set [20] has as its system Mus musculus. The data set can be described thus: Antiinflammatory activity in C57BL/6 mouse assessed as inhibition of LPS-induced lung edema at 10 to 20 mg/kg, ip pretreated for 30 mins followed by LPS addition measured after 6 hrs by hematoxylin and eosin staining based microscopic analysis. The class given is functional, organism-based.
In data set [21] the test system is Peritoneal macrophage. The data set can be described thus: Cytotoxicity against mouse primary peritoneal macrophages assessed as reduction in cell viability at 10 uM after 24 hrs by MTT assay. Format: cell-based.
The subject of data set [22] is Mus musculus. Nature of the data set: Antiinflammatory activity in C57BL/6 mouse assessed as inhibition of LPS-induced destruction of alveolar structure at 10 to 20 mg/kg, ip pretreated for 30 mins followed by LPS addition measured after 6 hrs by hematoxylin and eosin staining based microscopic analysis. Format: functional, organism-based.

Consider `Cn1c(S(=O)(=O)c2ccc(C(C)(C)C)cc2)cc2ccccc21`, for which, in [1], the result was Active. Besides, the concentration for half-maximal inhibition (IC50) in data set [2] was 3.08 µM; in [11], 1.1 µM. For the same molecule, the inhibition result in data set [2] and in [11] was “Dose-dependent effect” throughout. The inhibition result in data set [3], in [4], in data set [5], in [6], in data set [8] and in data set [9] was “Active” throughout. Besides, the inhibition result in data set [12], in data set [13], in data set [14], in data set [15], in data set [16] and in data set [17] was “Active” each time. For the same molecule, the inhibition result in data set [18], in [19], in data set [20] and in [22] was “Active” throughout. Also, the inhibition at 10 µM in [7] worked out at 88%; in [10], 82%. Besides, in data set [21], the Activity entry is recorded as “Non-Toxic”.
On to `Cn1c(S(=O)(=O)c2ccc(C(F)(F)F)cc2)cc2ccccc21`, for which the result in data set [1] was Active. The IC50 worked out at 8.01 µM in data set [2] and 1.82 µM in data set [11]. The inhibition entry in data set [2] and in [11] was “Dose-dependent effect” throughout. The inhibition result in data set [3], in [4], in [5], in data set [6], in [8] and in [9] was “Active” each time. Also, the inhibition result in [12], in [13], in [14], in data set [15], in data set [16] and in data set [17] was “Active” each time. In addition, the inhibition entry in [18], in data set [19], in [20] and in data set [22] was “Active” throughout. Further, the inhibition at 10 µM in [7] turned out to be 88%; in data set [10] it was 82%. Besides, the Activity result in data set [21] was “Non-Toxic”.
